The target of this assay is H+/K+ ATPase (Oryctolagus cuniculus (Rabbit), UniProt P27112). Description: Determination of compounds' inhibition of H+/K+ ATPase enzyme activity. Type of assay: biochemical. As to conditions: H+/K+ ATPase extracted from rabbit stomach; malachite green detection, 500 μM ATP, pH 6.5. An excerpt:
Determination of Compounds' Inhibition of H^+/K^+ ATPase Enzyme Activity
The following experiment is used to determine the inhibitory effect of the compound of the present invention on the H+/K+ATPase enzyme activity.
• Plate reader: SpectraMax M5(MD) • Malachite Green (Sigma Aldrich, 213020-25G) • Ammonium molybdate (Sigma Aldrich, 277908-20G) • ATP (Sigma Aldrich, A1852-1VL). 2. Buffer Preparation
Enzyme working solution: titrating the enzyme, diluting the enzyme with buffer 1, and during the reaction, taking 5 μl of the diluted solution into 50 μl reaction system.
ATP solution: 100 mM ATP was diluted to 5 mM with no K+buffer, and 5 μl of the diluted solution was added to the 50 μl reaction system, that is, the final concentration of ATP was 500 μM.
MLG color development liquid: 0.12% MLG, 7.5% ammonium molybdate, 11% Tween-20 was mixed as 100:25:2, and adding 15 μl of the mixture into each well during detection.
Buffer 1: 50 mM Tris-HCl pH 6.5, 5 mM magnesium chloride (magnesium chloride), 10 μM valinomycin (valinomycin).
Buffer 2: 50 mM Tris-HCl pH 6.5, 5 mM magnesium chloride (magnesium chloride), 10 μM valinomycin (valinomycin), 20 mM KCl.
Homogenization buffer: 10 mmol/L Tris-HCl, pH 6.8, 0.25M sucrose (sucrose), 1 mmol/LEDTA
7.5% Ficoll layering solution: homogenization buffer+7.5% (W/W) (Ficoll 400).
3.1. H^+/K^+ ATPase Enzyme Extraction
(1) The stomach tissue of the rabbit was separated, and the blood was washed with tap water, food residue.
(2) The fundus portion was thoroughly washed with pre-cooled NaCl solution to remove surface mucus.
(3) The stripped mucosa was filled into a sample bag or a 50 ml centrifuge tube, and quickly freezing in a liquid nitrogen tank.
(4) The tissue was removed, minced with surgical scissors, and a pre-cooled homogenization buffer (4 ml/g tissue) was added and homogenized in a tissue homogenizer for 2 to 10 minutes.
(5) After homogenization, if there were larger tissue particles, they could be removed by centrifugation (600 g, 10 min), and then the supernatant was transferred to a clean centrifuge tube. After centrifugation at 20000 g for 30 minutes, then the supernatant was transferred to a clean centrifuge tube at 100000 g for 90 minutes and the precipitate was collected.
(6) Resuspending the precipitate with homogenization buffer, blowing uniformly, adding 7.5% Ficoll layering solution at equal ratio, centrifuging at 100000 g for 90 minutes, and collecting the precipitate.
(7) Resuspending the precipitate with homogenization buffer, blowing uniformly, and the protein concentration was measured by Bradford. Freezing in tubes at −80° C. for later use.
3.2. H^+/K^+ ATPase Activity Experiment
(1) Adding 35 μl of reaction buffer to each experimental well, and then added 35 μl of buffer 1.
(2) Adding 5 μl buffer 1 containing 10% DMSO to the whole enzyme and buffer well.
(3) Adding 5 μl of 10× compound working solution to the compound well and mixing well.
(4) Adding 5 μl of buffer 1 to the buffer well.
(5) Adding 5 μl of 10× enzyme working solution to the remaining wells, mixing and incubating at 37° C. for 30 minutes
(6) Adding 5 μl of 10× ATP working solution to all experimental wells, and incubating at 37° C. for 20 min.
(7) Adding 15 μl MLG chromogenic solution to all experimental wells, and uniformly mixing and incubating at room temperature for 5-30 min.
(8) The reading number of 620 nm was detected by an M5 instrument. […]

Chain of H+/K+ ATPase (P27112 whole entry): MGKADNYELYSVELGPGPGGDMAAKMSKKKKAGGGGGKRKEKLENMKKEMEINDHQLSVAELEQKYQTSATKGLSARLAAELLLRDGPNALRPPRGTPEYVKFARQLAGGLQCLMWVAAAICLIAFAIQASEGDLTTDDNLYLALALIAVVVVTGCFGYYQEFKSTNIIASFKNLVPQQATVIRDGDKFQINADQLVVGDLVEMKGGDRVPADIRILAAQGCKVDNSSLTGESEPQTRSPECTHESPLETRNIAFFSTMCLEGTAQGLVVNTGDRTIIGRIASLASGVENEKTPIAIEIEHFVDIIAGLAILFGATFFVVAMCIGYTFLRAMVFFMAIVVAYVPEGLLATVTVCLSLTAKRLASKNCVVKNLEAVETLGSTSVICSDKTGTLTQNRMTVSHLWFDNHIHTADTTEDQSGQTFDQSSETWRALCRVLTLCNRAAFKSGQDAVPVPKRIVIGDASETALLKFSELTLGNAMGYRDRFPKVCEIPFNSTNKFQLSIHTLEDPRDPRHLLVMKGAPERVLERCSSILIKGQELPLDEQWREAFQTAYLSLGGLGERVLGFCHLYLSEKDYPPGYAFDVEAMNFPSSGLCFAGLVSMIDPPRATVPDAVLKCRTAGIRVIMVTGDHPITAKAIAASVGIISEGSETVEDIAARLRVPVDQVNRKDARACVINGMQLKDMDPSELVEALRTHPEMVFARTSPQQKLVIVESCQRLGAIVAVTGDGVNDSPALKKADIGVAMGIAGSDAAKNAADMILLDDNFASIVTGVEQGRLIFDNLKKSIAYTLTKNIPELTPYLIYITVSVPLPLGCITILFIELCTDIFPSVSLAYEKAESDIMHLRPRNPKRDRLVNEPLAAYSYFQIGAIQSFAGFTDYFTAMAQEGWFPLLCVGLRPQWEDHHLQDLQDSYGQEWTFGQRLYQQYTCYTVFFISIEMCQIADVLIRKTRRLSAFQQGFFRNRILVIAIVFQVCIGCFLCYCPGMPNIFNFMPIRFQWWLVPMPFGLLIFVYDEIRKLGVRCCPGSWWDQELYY
Chain of H+/K+ ATPase (P18597 whole entry partner): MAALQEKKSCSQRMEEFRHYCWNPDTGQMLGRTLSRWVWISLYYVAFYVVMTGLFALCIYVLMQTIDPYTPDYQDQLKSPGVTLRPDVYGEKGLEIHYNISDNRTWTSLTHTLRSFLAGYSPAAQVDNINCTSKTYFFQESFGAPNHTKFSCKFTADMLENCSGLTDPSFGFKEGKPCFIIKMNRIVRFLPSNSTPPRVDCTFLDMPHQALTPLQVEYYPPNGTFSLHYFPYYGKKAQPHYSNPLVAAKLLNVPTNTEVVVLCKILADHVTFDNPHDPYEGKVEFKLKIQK

Consider `CN1Cc2nn(Cc3cccc(N4CCOCC4)c3)c(-c3ccccc3F)c2C1` [Example 1, 4-(3-((3-(2-fluorophenyl)-5-methyl-5,6-dihydropyrrolo [3,4-c]pyrazole-2(4H)-yl)methyl)phenyl) morpholine], for which the IC50 (in general, the concentration that inhibits the measured activity by half) came out at 0.411 µM.

Regarding `CN1Cc2nn(Cc3cccc(N4CCCCC4)c3)c(-c3ccccc3F)c2C1` [Example 2, 3-(2-fluorophenyl)-5-methyl-2-(3-(piperidin-1-yl)benzyl)-2,4,5,6-tetrahydropyrrolo[3,4-c]pyrazole], the concentration for half-maximal inhibition (IC50) was determined as 0.431 µM.

Regarding `CN1Cc2nn(Cc3cccc(N4CCCC4)c3)c(-c3ccccc3F)c2C1` [Example 3, 3-(2-fluorophenyl)-5-methyl-2-(3-(pyrrolidin-1-yl)benzyl)-2,4,5,6-tetrahydropyrrolo[3,4-c]pyrazole], the IC50 was determined as 1.86 µM.

The compound `CN1CCN(c2cccc(Cn3nc4c(c3-c3ccccc3F)CN(C)C4)c2)CC1` [Example 4, 3-(2-fluorophenyl)-5-methyl-2-(3-(4-methylpiperazin-1-yl)benzyl)-2,4,5,6-tetrahydro pyrrolo [3,4-c] pyrazole] yielded a 50% inhibitory concentration (IC50) of 0.58 µM.

Compound `CN1Cc2nn(Cc3cccc(N4CCC(N5CCCCC5)CC4)c3)c(-c3ccccc3F)c2C1` [Example 5, 2-(3-([1,4′-Bipiperidine]-1′-yl)benzyl)-3-(2-fluorophenyl)-5-methyl-2,4,5,6-tetrahydropyrrolo[3,4-c]pyrazole] returned an IC50 of 2.58 µM.

The values are drawn from patent publication US12391696B2, “Pyrrolopyrazole derivatives, preparation method thereof and application thereof in medicine” (SHANGHAI MEDICILON INC., priority 2019, dated 2025).
